For 5 compounds, IC50 results are on record in patent US9770445B2, “Sulfoximine substituted 5-fluoro-N-(pyridin-2-yl)pyridin-2-amine derivatives and their use as CDK9 kinase inhibitors” (BAYER PHARMA AKTIENGESELLSCHAFT, priority 2013, dated 2017).

For assay [1], the system named is A2780, human ovarian carcinoma cells. The assay is described as follows: Proliferation assay, A2780 (crystal violet). Type of assay: cell-based. The note with it: 96 h, A2780, 4 days, read-out: Inhibition of A2780 cell proliferation. The procedure:
Cultivated tumour cells (HeLa, human cervical tumour cells, ATCC CCL-2; NCI-H460, human non-small cell lung carcinoma cells, ATCC HTB-177; A2780, human ovarian carcinoma cells, ECACC #93112519; DU 145, hormone-independent human prostate carcinoma cells, ATCC HTB-81; HeLa-MaTu-ADR, multidrug-resistant human cervical carcinoma cells, EPO-GmbH Berlin; Caco-2, human colorectal carcinoma cells, ATCC HTB-37; B16F10, mouse melanoma cells, ATCC CRL-6475) were plated at a density of 5,000 cells/well (DU145, HeLa-MaTu-ADR), 3,000 cells/well (NCI-H460, HeLa), 2,500 cells/well (A2780), 1,500 cells/well (Caco-2), or 1,000 cells/well (B16F10) in a 96-well multititer plate in 200 μL of their respective growth medium supplemented 10% fetal calf serum. After 24 hours, the cells of one plate (zero-point plate) were stained with crystal violet (see below), while the medium of the other plates was replaced by fresh culture medium (200 μl), to which the test substances were added in various concentrations (0 μM, as well as in the range of 0.001-10 μM; the final concentration of the solvent dimethyl sulfoxide was 0.5%). The cells were incubated for 4 days in the presence of test substances. Cell proliferation was determined by staining the cells with crystal violet: the cells were fixed by adding 20 μl/measuring point of an 11% glutaric aldehyde solution for 15 minutes at room temperature. After three washing cycles of the fixed cells with water, the plates were dried at room temperature. The cells were stained by adding 100 μl/measuring point of a 0.1% crystal violet solution (pH 3.0). After three washing cycles of the stained cells with water, the plates were dried at room temperature. The dye was dissolved by adding 100 μl/measuring point of a 10% acetic acid solution. The extinction was determined by photometry at a wavelength of 595 nm. The change of cell number, in percent, was calculated by normalization of the measured values to the extinction values of the zero-point plate (=0%) and the extinction of the untreated (0 μm) cells (=100%). […]

Assay [2] relates to MOLM-13 human acute myeloid leukemia cells. The assay is described as follows: Proliferation assay, MOLM-13 (Cell Titre-Glo). Type of assay: cell-based. The note with it: MOLM-13, 72-hour exposure, read-out: Inhibition of MOLM-13 cell proliferation. How it is done:
Non-adherent MOLM-13 human acute myeloid leukemia cells (DSMZ ACC 554) were seeded at a density of 5,000 cells/well in a 96-well multititer plate in 100 μL of growth medium supplemented 10% fetal calf serum. After 24 hours, cell viability of one plate (zero-point plate) was determined with the Cell Titre-Glo Luminescent Cell Viability Assay (Promega), while 50 μL of test compound containing medium was added to the wells of the other plates (final concentrations in the range of 0.001-10 μM and DMSO controls; the final concentration of the solvent dimethyl sulfoxide was 0.5%). Cell viability was assessed after 72-hour exposure with the Cell Titre-Glo Luminescent Cell Viability Assay (Promega). IC50 values (inhibitory concentration at 50% of maximal effect) were determined by means of a 4 parameter fit on measurement data which were normalized to vehicle (DMSO) treated cells (=100%) and measurement readings taken immediately before compound exposure (=0%).

For `CS(=N)(=O)Cc1cc(F)nc(Nc2cc(-c3ccc(F)c4ccoc34)c(F)cn2)c1` (racemic) [Example 1, (rac)-5-Fluoro-4-(4-fluoro-1-benzofuran-7-yl)-N-{6-fluoro-4-[(S-methylsulfonimidoyl)methyl]pyridin-2-yl}pyridin-2-amine], the IC50 in assay [1] came to 11 nM; in assay [2], 16 nM.
Turning to `Cc1cc(CS(C)(=N)=O)cc(Nc2cc(-c3ccc(F)c4ccoc34)c(F)cn2)n1` (racemic) [Example 7, (rac)-5-Fluoro-4-(4-fluoro-1-benzofuran-7-yl)-N-{6-methyl-4-[(S-methylsulfonimidoyl)-methyl]pyridin-2-yl}pyridin-2-amine], in assay [2], the IC50 worked out at 6.3 nM.
The same measure, in the same setting: as for `CCc1cc(CS(C)(=N)=O)cc(Nc2cc(-c3ccc(F)c4ccoc34)c(F)cn2)n1` (racemic) [Example 8, (rac)-N-{6-Ethyl-4-[(S-methylsulfonimidoyl)methyl]pyridin-2-yl}-5-fluoro-4-(4-fluoro-1-benzofuran-7-yl)pyridin-2-amine], the figure is 3.9 nM.
As to `CS(=N)(=O)Cc1cc(Nc2cc(-c3ccc(F)c4ccoc34)c(F)cn2)nc(C(F)(F)F)c1` (racemic) [Example 3, (rac)-5-Fluoro-4-(4-fluoro-1-benzofuran-7-yl)-N-{4-[(S-methylsulfonimidoyl)methyl]-6-(trifluoromethyl)pyridin-2-yl}pyridin-2-amine], the IC50 in assay [1] came to 10 nM; in assay [2], 6 nM.
For `CS(=N)(=O)Cc1ccnc(Nc2cc(-c3ccc(F)c4ccoc34)c(F)cn2)c1` (racemic) [Example 5, (rac)-5-Fluoro-4-(4-fluoro-1-benzofuran-7-yl)-N-{4-[(S-methylsulfonimidoyl)methyl]pyridin-2-yl}pyridin-2-amine], in that order: 29 nM and 18 nM.
